Test results published in patent US10544144B2, “Fused pyrimidine piperidine cyclic derivative, preparation process and use thereof” (SHANGHAI ALLIST PHARMACEUTICAL AND MEDICAL TECHNOLOGY …, priority 2016, dated 2020).
Like-named read-outs stand apart in the source and are kept apart here.

Key:
[1] = test system: Human Acute Myelogenous Leukemia Cell KG-1α (FGFR1 Insertion Mutation); experiment: MTT proliferation inhibition, KG-1α cells; type: cell-based; details: 72 hours drug exposure
Description: (§1) The pharmacodynamic action of the compound of the present invention in terms of inhibiting the proliferation of cancer cells may be determined by conventional methods. One preferable evaluation method is MTT (Thiazolyl Blue) cell activity assay, in which the change in optical absorption value generated after the drug has acted on the cancer cells is measured, and the inhibition ratio of a drug against the proliferation of cancer cells is calculated. Inhibition ratio (%)=[(blank control OD−inhibitor OD)/blank control OD]×100%
(§2) Blank control OD: the OD value of the well of normally grew cells without the action of a drug.
(§3) Inhibitor OD: the OD value of the well of cells with the action of the added compounds to be screened.
(§4) The median inhibitory concentration (IC50) value is obtained by the software GraphPad Prism 5.0 by the 4-parameter logistic curve fit calculation. Each experiment is repeated three times, and the average IC50 value for three experiments is used as the final index for the inhibitory ability.
(§5) Proliferation Inhibition Effect on Human Acute Myelogenous Leukemia Cell KG-1α (FGFR1 Insertion Mutation), Human Gastric Cancer Cell KATO-3 (FGFR2 Amplification), Human Multiple Myeloma Cell KMS-11 (FGFR3 Y373C Mutation)
(§6) Cells in the logarithmic phase were inoculated to 96-well culture plates (cell density: 3000/well for KATO-3, 9000/well for KG-1α, 3000/well for KMS-11, cell suspension: 180 μl/well), and cultured at 37° C. under 5% CO2 for 24 hours. After the culturing, the cells adhered to the well walls. Each of compounds was dissolved in DMSO in advance to formulate a 10 mM stock solution. Upon testing, the stock solution was diluted with complete medium to 10 times the target concentration in another 96-cell plate. And then the compound was added at 20 μl/cell in the 96-well plate in which the cells were inoculated, i.e. the target concentration could be reached. The well for each concentration was triplicated, and the blank control was established. Cells continued to be cultured at 37° C. under 5% CO2 for 72 hours. After the drug acted for 72 hours, 20 μl of Thiazolyl Blue, i.e., MTT was added to each of wells. MTT was dissolved in a phosphate buffer solution free of Ca and Mg ions (D-PBSA) to formulate a 0.5% stock solution in advance. The stock solution was filtered and sterilized. Cells continued to be cultured at 37° C. under 5% CO2 for 4 hours. After 4 hours from the addition of MTT, 100 μl of 14% dimethylformamide-sodium dodecyl sulfate (DMF-SDS) was added to and dissolved in each of wells. Cells were cultured at 37° C. for 3-4 hours, and detected for the light density value (OD) at a wavelength of 570 nm. The inhibition rate was calculated based on the collected data.

[2] = test system: Human Gastric Cancer Cell KATO-3 (FGFR2 Amplification); experiment: MTT proliferation inhibition, KATO-3 cells; type: cell-based
From the text: The pharmacodynamic action of the compound of the present invention in terms of inhibiting the proliferation of cancer cells may be determined by conventional methods. […] Inhibition ratio (%)=[(blank control OD−inhibitor OD)/blank control OD]×100%
as §2, §3, §4, §5, §6

[3] = test system: subcutaneously transplanted tumors of human bladder cancer RT112/84; experiment: Growth of subcutaneously transplanted tumors in RT112/84-bearing nude mice; type: in vivo, BALB/c nude mice; details: p.o., 14 days, I-5 15 or 25 mg/kg QD, I-13 50 mg/kg BID, BGJ398 15 mg/kg QD, FIG. 1
From the text: The pharmacodynamic action of the compound of the present invention in terms of inhibiting the growth of transplantation tumor in animal may be assayed by conventional methods. One preferable evaluation method involves the inhibitory effect on the growth of subcutaneously transplantation tumor of human bladder cancer RT112/84-bearing nude mice. The experimental method is as follows: 5×10^6 human bladder cancer RT112/84 cells are inoculated to nude mice subcutaneously at the right side of the back thereof, and each mouse is inoculated with 0.1 ml. After the tumors grow to 100-150 mm^3 on average, the animals are divided into groups randomly according to the tumor size and the animal weight. […] During the entire experimental process, the animal weight and the tumor size are measured twice per week, so as to observe whether or not the toxic reaction occurs.
The tumor volume is calculated as follows: Tumor volume (mm^3)=0.5×(Tumor major diameter×Tumor minor diameter^2) Body weight change rate (%)=measured body weight/body weight before administration×100%. […]
Cell cultivation: RT112/84 cells were placed in a MEM medium containing 10% fetal bovine serum (FBS) and 1% non-essential amino acid (NEAA), and cultivated in a temperature-constant incubator containing 5% CO2 at 37° C. The cells in exponential growth phase were collected and counted for inoculation. […]

[4] = test system: Human Multiple Myeloma Cell KMS-11 (FGFR3 Y373C Mutation); experiment: MTT proliferation inhibition, KMS-11 cells; type: cell-based; details: 72 hours drug exposure
Description: as §1, §2, §3
The median inhibitory concentration (IC50) value is obtained by the software GraphPad Prism 5.0 by the 4-parameter logistic curve fit calculation. […]
Cells in the logarithmic phase were inoculated to 96-well culture plates (cell density: 3000/well for KATO-3, 9000/well for KG-1α, 3000/well for KMS-11, cell suspension: 180 μl/well), and cultured at 37° C. under 5% CO2 for 24 hours. […] Cells were cultured at 37° C. for 3-4 hours, and detected for the light density value (OD) at a wavelength of 570 nm. The inhibition rate was calculated based on the collected data.

[5] = KATO3, MTT, 72 hours drug exposure, KATO-3 cells, read-out: KATo-3 (FGFR2 amplification) IC50
[6] = KATO3, 72 h, read-out: KATo-3 (FGFR2 amplification) IC50 (nM)

Molecule	IC50 ([1]; Homo sapiens) [nM]	IC50 [2, 5] [nM]	IC50 [2, 6] [nM]	further results
CCN1CCN(c2ccc(Nc3ncc4c(n3)CCN(c3c(Cl)c(OC)cc(OC)c3Cl)C4)cc2)CC1 [Compound I-1, 6-(2,6-dichloro-3,5-dimethoxyphenyl)-N-(4-(4-ethylpiperazin-1-yl)phenyl)-5,6,7,8-tetrahydropyrido[4,3-d]pyrimidin-2-amine]	5	12	–	–
COc1cc(OC)c(Cl)c(N2CCc3nc(Nc4ccc(N5CCN(CC(F)(F)F)CC5)cc4)ncc3C2)c1Cl [Compound I-2, 6-(2,6-dichloro-3,5-dimethoxyphenyl)-N-(4-(4-(2,2,2-trifluoroethyl)piperazin-1-yl)phenyl)-5,6,7,8-tetrahydropyrido[4,3-d]pyrimidin-2-amine]	7	–	45	–
COc1cc(OC)c(Cl)c(N2CCc3nc(Nc4ccc(N5CCN(CCO)CC5)cc4)ncc3C2)c1Cl [Compound I-3, 2-(4-(4-(6-(2,6-dichloro-3,5-dimethoxyphenyl)-5,6,7,8-tetrahydropyrido[4,3-d]pyrimidin-2-ylamino)phenyl)piperazin-1-yl)ethanol]	1	–	8	–
COc1cc(OC)c(Cl)c(N2CCc3nc(Nc4ccc(N5CCN(CCN(C)C)CC5)cc4)ncc3C2)c1Cl [Compound I-4, 6-(2,6-dichloro-3,5-dimethoxyphenyl)-N-(4-(4-(2-(dimethylamino)ethyl)piperazin-1-yl)phenyl)-5,6,7,8-tetrahydropyrido[4,3-d]pyrimidin-2-amine]	2	–	30	–
COc1cc(OC)c(Cl)c(N2CCc3nc(Nc4ccc(N5CCC(N(C)C)CC5)cc4)ncc3C2)c1Cl [Compound I-5, 6-(2,6-dichloro-3,5-dimethoxyphenyl)-N-(4-(4-(dimethylamino)piperidin-1-yl)phenyl)-5,6,7,8-tetrahydropyrido[4,3-d]pyrimidin-2-amine]	2	–	4	inhibition effect on the growth of subcutaneously transplanted tumors (tumor volume) [3]: better inhibition effect than BGJ398
COc1cc(OC)c(Cl)c(N2CCc3nc(Nc4ccc(N5CCN(C6CC6)CC5)cc4)ncc3C2)c1Cl [Compound I-6, 6-(2,6-dichloro-3,5-dimethoxyphenyl)-N-(4-(4-cyclopropylpiperazin-1-yl)phenyl)-5,6,7,8-tetrahydropyrido[4,3-d]pyrimidin-2-amine]	3	–	11	–
CCN1CCN(c2ccc(Nc3ncc4c(n3)CCN(c3c(Cl)c(OC)cc(OC)c3Cl)C4)cc2)C(=O)C1 [Compound I-7]	18	6	–	–
CCN1CCN(c2ccc(Nc3ncc4c(n3)CCN(c3c(Cl)c(OC)cc(OC)c3Cl)C4)cn2)CC1 [Compound I-8, 6-(2,6-dichloro-3,5-dimethoxyphenyl)-N-(6-(4-ethylpiperazin-1-yl)pyridin-3-yl)-5,6,7,8-tetrahydropyrido[4,3-d]pyrimidin-2-amine]	5	4	–	–
COc1cc(OC)c(Cl)c(N2CCc3nc(Nc4ccc(N5CCC(N(C)C)CC5)nc4)ncc3C2)c1Cl [Compound I-9, 6-(2,6-dichloro-3,5-dimethoxyphenyl)-N-(6-(4-(dimethylamino)piperidin-1-yl)pyridin-3-yl)-5,6,7,8-tetrahydropyrido[4,3-d]pyrimidin-2-amine]	12	21	–	IC50 ([4]; Homo sapiens): 200 nM
CCN1CCN(c2ccc(Nc3ncc4c(n3)CCN(c3c(Cl)c(OC)cc(OC)c3Cl)C4)cc2OC)CC1 [Compound I-10, 6-(2,6-dichloro-3,5-dimethoxyphenyl)-N-(4-(4-ethylpiperazin-1-yl)-3-methoxyphenyl)-5,6,7,8-tetrahydropyrido[4,3-d]pyrimidin-2-amine]	24	7	–	–
CCN1CCN(c2ccc(Nc3ncc4c(n3)CCN(c3cc(C(=O)NC)cc(OC)c3Cl)C4)cn2)CC1 [Compound I-11, 4-chloro-3-(2-(6-(4-ethylpiperazin-1-yl)pyridin-3-ylamino)-7,8dihydropyrido[4,3-d]pyrimidin-6(5H)-yl)-5-methoxy-N-methylbenzamide]	8	4	–	–
CNC(=O)c1cc(OC)c(Cl)c(N2CCc3nc(Nc4ccc(N5CCC(N(C)C)CC5)cc4)ncc3C2)c1 [Compound I-13]	6	3	–	–
COc1cc(OC)c(Cl)c(N2CCc3nc(Nc4ccc(N5CCN(CCO)CC5)nc4)ncc3C2)c1Cl [Compound I-14, 2-(4-(5-(6-(2,6-dichloro-3,5-dimethoxyphenyl)-5,6,7,8-tetrahydropyrido[4,3-d]pyrimidin-2-ylamino)pyridin-2-yl)piperazin-1-yl)ethanol]	15	23	–	–
COc1cc(OC)c(Cl)c(N2CCc3nc(Nc4ccc(N5CCC(N(C)C)CC5)cc4)ncc3C2)c1F [Compound I-15, 6-(2-fluoro-6-chloro-3,5-dimethoxyphenyl)-N-(4-(4-(dimethylamino)piperidin-1-yl)phenyl)-5,6,7,8-tetrahydropyrido[4,3-d]pyrimidin-2-amine]	2	3	–	–
AZD4547 [reference compound]	–	–	–	IC50 [1]: 7 nM; IC50 [4]: 200 nM
